Laboratory results: patent US20240239755A1, “SUBSTITUTED PYRIDAZINONES, SALTS OR N-OXIDES THEREOF AND THEIR USE AS HERBICIDALLY ACTIVE SUBSTANCES” (Bayer Aktiengesellschaft, priority 2021, published 2024)

What was measured:
Type in all cases: in vivo
[1] = system: Kochia scoparia (KCHSC); assay: Herbicidal pre-emergence action, 1280 g/ha (Table A4); conditions: visual grading after ca. 3 weeks vs untreated controls
In short: (§1)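 Seeds are sown and covered with sandy loam soil, then the soil surface is treated with compound suspension or emulsion (0.5% additive, 600 L water/ha). Plants grow in a greenhouse under optimum conditions, and damage is rated visually at ca. 3 weeks against untreated controls.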

[2] = system: Lolium rigidum (LOLRI); assay: Herbicidal pre-emergence action, 1280 g/ha (Table A5); conditions: visual grading after ca. 3 weeks vs untreated controls
In short: as §1

[3] = system: Matricaria inodora (MATIN); assay: Herbicidal pre-emergence action, 1280 g/ha (Table A6); conditions: visual grading after ca. 3 weeks vs untreated controls
In short: as §1

[4] = system: Poa annua (POAAN); assay: Herbicidal pre-emergence action, 1280 g/ha (Table A7); conditions: visual grading after ca. 3 weeks vs untreated controls
In short: as §1

[5] = system: Stellaria media (STEME); assay: Herbicidal pre-emergence action, 1280 g/ha (Table A9); conditions: visual grading after ca. 3 weeks vs untreated controls
In short: as §1

[6] = system: Amaranthus retroflexus (AMARE); assay: Herbicidal pre-emergence action, 1280 g/ha (Table A11); conditions: visual grading after ca. 3 weeks vs untreated controls
In short: as §1

[7] = system: Abutilon theophrasti (ABUTH); assay: Herbicidal post-emergence action, 1280 g/ha (Table B1); conditions: visual assessment after ca. 3 weeks vs untreated controls
In short: (§2)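 Foliar application to single-leaf weeds in sandy loam; percent kill judged visually ca. 3 weeks later relative to untreated plants.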

[8] = system: Kochia scoparia (KCHSC); assay: Herbicidal post-emergence action, 1280 g/ha (Table B4); conditions: visual assessment after ca. 3 weeks vs untreated controls
In short: as §2

[9] = system: Matricaria inodora (MATIN); assay: Herbicidal post-emergence action, 1280 g/ha (Table B6); conditions: visual assessment after ca. 3 weeks vs untreated controls
In short: as §2

[10] = system: Stellaria media (STEME); assay: Herbicidal post-emergence action, 1280 g/ha (Table B9); conditions: visual assessment after ca. 3 weeks vs untreated controls
In short: as §2

[11] = system: Veronica persica (VERPE); assay: Herbicidal post-emergence action, 1280 g/ha, VERPE; conditions: visual grading vs untreated controls
In short: (§3)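 Visual rating ~3 weeks after treatment: 0% equals untreated control, 100% means plants died. Treatment was a 1280 g/ha foliar spray (600 L water/ha, 0.5% additive, WP or EC formulation) applied to single-leaf-stage plants grown 2–3 weeks in sandy loam under controlled conditions.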

[12] = system: Amaranthus retroflexus (AMARE); assay: Herbicidal post-emergence action, 1280 g/ha, AMARE; conditions: visual grading vs untreated controls
In short: as §3

[13] = system: Lolium rigidum (LOLRI); assay: Herbicidal pre-emergence action, 320 g/ha (Table C2); conditions: visual grading after ca. 3 weeks vs untreated controls
In short: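 Herbicidal effect was graded by eye roughly 3 weeks after treatment, from 0% (as control) to 100% (dead plants). Weed seeds sown in sandy loam were covered and sprayed on the soil surface with WP/EC suspensions or emulsions, 0.5% additive, 600 L water/ha, then kept in a greenhouse.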

[14] = system: Matricaria inodora (MATIN); assay: Herbicidal pre-emergence action, 320 g/ha (Table C3); conditions: visual grading after ca. 3 weeks vs untreated controls
From the text: (§4) Seeds of mono- and dicotyledonous weed plants were sown in plastic pots (double sowings with one species of mono- and one species of dicotyledonous weed plants per pot), in sandy loam, and covered with soil. The compounds according to the invention, formulated in the form of wettable powders (WP) or as emulsifiable concentrates (EC), were applied to the surface of the covering soil as an aqueous suspension or as an emulsion, with the addition of 0.5% of an additive, at an application rate of 600 litres of water per hectare (converted). Following treatment, the pots were placed in a greenhouse and kept under optimum growth conditions for the test plants. The visual grading of the damage to the test plants was carried out after ca. 3 weeks in comparison to untreated controls (herbicidal effect in percent (%): 100% effect=plants have died, 0% effect=as control plants). Tables C1 to C6 below, show the effects of selected compounds of the general formula (I) according to Table 1 on various harmful plants using an application rate corresponding to 320 g/ha obtained by the experimental procedure mentioned above.

[15] = system: Stellaria media (STEME); assay: Herbicidal pre-emergence action, 320 g/ha, STEME; conditions: visual grading after ca. 3 weeks
In short: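 Percent herbicidal effect, graded by eye about 3 weeks after treatment relative to untreated pots (0% matching controls, 100% dead plants). Application of 320 g/ha onto soil covering freshly sown seeds, as aqueous suspension or emulsion plus 0.5% additive at 600 L/ha; pots kept in greenhouse.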

[16] = system: Abutilon theophrasti (ABUTH); assay: Herbicidal post-emergence action, 320 g/ha, ABUTH; conditions: visual grading after ca. 3 weeks
In short: (§5)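 Test compounds, formulated as wettable powders or emulsifiable concentrates with 0.5% additive, are sprayed onto green parts of single-leaf-stage weeds at a water volume of 600 L/ha. Percent effect is judged by eye after roughly three weeks under optimum greenhouse conditions.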

[17] = system: Matricaria inodora (MATIN); assay: Herbicidal post-emergence action, 320 g/ha, MATIN; conditions: visual grading after ca. 3 weeks
In short: as §5

[18] = system: Veronica persica (VERPE); assay: Herbicidal post-emergence action, 320 g/ha, VERPE; conditions: visual grading after ca. 3 weeks
In short: as §5

[19] = system: Amaranthus retroflexus (AMARE); assay: Herbicidal post-emergence action, 320 g/ha, AMARE; conditions: visual grading after ca. 3 weeks
In short: as §5

[20] = system: Veronica persica (VERPE); assay: Herbicidal pre-emergence action, 1280 g/ha (Table A10); conditions: visual grading after ca. 3 weeks vs untreated controls
From the text: as §4, with “A1” for “C1”, “A11” for “C6”, “and” for “using”, “1280” for “320”

[21] = system: Echinochloa crus-galli (ECHCG); assay: Herbicidal post-emergence action, 1280 g/ha (Table B3); conditions: visual assessment after ca. 3 weeks vs untreated controls
From the text: (§6) Seeds of mono- and dicotyledonous weed plants were sown in plastic pots (double sowings with one species of mono- and one species of dicotyledonous weed plants per pot), in sandy loam, covered with soil and grown under controlled growth conditions. 2 to 3 weeks after sowing, the test plants were sprayed in the single-leaf stage. The compounds according to the invention, formulated in the form of wettable powders (WP) or as emulsifiable concentrates (EC), were sprayed onto the green plant parts as an aqueous suspension or as an emulsion, with the addition of 0.5% of an additive, at an application rate of 600 litres of water per hectare (converted). The test plants were placed in the greenhouse for ca. 3 weeks under optimum growth conditions, and then the effect of the preparations was assessed visually in comparison with untreated controls (herbicidal effect in percent (%): 100% effect=plants have died, 0% effect=as control plants). Tables B1 to B11 below, show the effects of selected compounds of the general formula (I) according to Table 1 on various harmful plants using an application rate corresponding to 1280 g/ha obtained by the experimental procedure mentioned above.

[22] = system: Lolium rigidum (LOLRI); assay: Herbicidal post-emergence action, 1280 g/ha (Table B5); conditions: visual assessment after ca. 3 weeks vs untreated controls
In short: as §2

[23] = system: Setaria viridis (SETVI); assay: Herbicidal post-emergence action, 1280 g/ha (Table B8); conditions: visual assessment after ca. 3 weeks vs untreated controls
From the text: as §6

[24] = system: Amaranthus retroflexus (AMARE); assay: Herbicidal pre-emergence action, 320 g/ha, AMARE; conditions: visual grading after ca. 3 weeks
From the text: as §4, with “plants).” for “plants). Tables C1 to C6 below, show the effects of selected compounds of the general formula (I) according to Table 1 on various harmful plants using an application rate corresponding to 320 g/ha obtained by the experimental procedure mentioned above.”
Tables C1 to C6 below, show the effects of selected compounds of the general formula (I) according to Table 1 on various harmful plants using an application rate corresponding to 320 g/ha obtained by the experimental procedure mentioned above.

[25] = system: Lolium rigidum (LOLRI); assay: Herbicidal post-emergence action, 320 g/ha, LOLRI; conditions: visual grading after ca. 3 weeks
In short: as §5

[26] = system: Stellaria media (STEME); assay: Herbicidal post-emergence action, 320 g/ha, STEME; conditions: visual grading after ca. 3 weeks
In short: as §5

[27] = system: Digitaria sanguinalis (DIGSA); assay: Herbicidal post-emergence action, 1280 g/ha (Table B2); conditions: visual assessment after ca. 3 weeks vs untreated controls
From the text: as §6

[28] = system: Setaria viridis (SETVI); assay: Herbicidal pre-emergence action, 1280 g/ha (Table A8); conditions: visual grading after ca. 3 weeks vs untreated controls
In short: as §1

[29] = system: Abutilon theophrasti (ABUTH); assay: Herbicidal pre-emergence action, 1280 g/ha (Table A1); conditions: visual grading after ca. 3 weeks vs untreated controls
In short: as §1

Compound: Cc1nn(C)c(=O)c(Oc2cc(F)ccc2Br)c1O [Example I-026]
- herbicidal effect KCHSC [1]: 90%
- herbicidal effect LOLRI [2]: 100%
- herbicidal effect MATIN [3]: 100%
- herbicidal effect POAAN [4]: 90%
- herbicidal effect STEME [5]: 100%
- herbicidal effect AMARE [6]: 100%
- herbicidal effect ABUTH [7]: 100%
- herbicidal effect KCHSC [8]: 90%
- herbicidal effect MATIN [9]: 100%
- herbicidal effect STEME [10]: 90%
- herbicidal effect VERPE [11]: 90%
- herbicidal effect AMARE [12]: 100%
- herbicidal effect LOLRI [13]: 90%
- herbicidal effect MATIN [14]: 90%
- herbicidal effect STEME [15]: 100%
- herbicidal effect ABUTH [16]: 90%
- herbicidal effect MATIN [17]: 90%
- herbicidal effect VERPE [18]: 90%
- herbicidal effect AMARE [19]: 90%

Compound: Cc1nn(C)c(=O)c(Oc2ccccc2C#N)c1O [Example I-028]
- herbicidal effect MATIN [3]: 100%
- herbicidal effect POAAN [4]: 100%
- herbicidal effect STEME [5]: 100%
- herbicidal effect AMARE [12]: 90%
- herbicidal effect MATIN [14]: 100%
- herbicidal effect STEME [15]: 100%

Compound: CC(=O)Oc1c(C)nn(C)c(=O)c1Oc1ccccc1C(F)(F)F [Example I-030]
- herbicidal effect KCHSC [1]: 90%
- herbicidal effect LOLRI [2]: 100%
- herbicidal effect MATIN [3]: 100%
- herbicidal effect STEME [5]: 100%
- herbicidal effect VERPE [20]: 90%
- herbicidal effect AMARE [6]: 100%
- herbicidal effect ABUTH [7]: 100%
- herbicidal effect ECHCG [21]: 90%
- herbicidal effect KCHSC [8]: 90%
- herbicidal effect LOLRI [22]: 90%
- herbicidal effect MATIN [9]: 90%
- herbicidal effect SETVI [23]: 90%
- herbicidal effect STEME [10]: 100%
- herbicidal effect VERPE [11]: 90%
- herbicidal effect AMARE [12]: 90%
- herbicidal effect LOLRI [13]: 90%
- herbicidal effect MATIN [14]: 100%
- herbicidal effect STEME [15]: 100%
- herbicidal effect AMARE [24]: 90%
- herbicidal effect ABUTH [16]: 90%
- herbicidal effect LOLRI [25]: 90%
- herbicidal effect STEME [26]: 90%
- herbicidal effect AMARE [19]: 90%

Compound: CCOC(=O)Oc1c(C)nn(C)c(=O)c1Oc1ccc(F)cc1C1CC1 [Example I-034]
- herbicidal effect LOLRI [2]: 100%
- herbicidal effect MATIN [3]: 100%
- herbicidal effect AMARE [6]: 90%
- herbicidal effect ABUTH [7]: 90%
- herbicidal effect DIGSA [27]: 90%
- herbicidal effect ECHCG [21]: 90%
- herbicidal effect KCHSC [8]: 90%
- herbicidal effect LOLRI [22]: 90%
- herbicidal effect MATIN [9]: 90%
- herbicidal effect SETVI [23]: 90%
- herbicidal effect STEME [10]: 90%
- herbicidal effect VERPE [11]: 90%
- herbicidal effect AMARE [12]: 100%
- herbicidal effect ABUTH [16]: 90%
- herbicidal effect STEME [26]: 90%
- herbicidal effect AMARE [19]: 90%

Compound: Cc1nn(C)c(=O)c(Oc2ccc(F)c(Cl)n2)c1O [Example I-052]
- herbicidal effect DIGSA [27]: 90%

Compound: Cc1nn(C)c(=O)c(Oc2ccc(Br)cc2)c1O [Example I-068]
- herbicidal effect SETVI [28]: 90%
- herbicidal effect AMARE [6]: 90%
- herbicidal effect DIGSA [27]: 90%
- herbicidal effect KCHSC [8]: 90%
- herbicidal effect VERPE [11]: 90%

Compound: CCOC(=O)Oc1c(C)nn(C)c(=O)c1Oc1cc(Cl)ccc1Cl [Example I-086]
- herbicidal effect LOLRI [2]: 100%
- herbicidal effect MATIN [3]: 100%
- herbicidal effect STEME [5]: 100%
- herbicidal effect VERPE [20]: 90%
- herbicidal effect AMARE [6]: 90%
- herbicidal effect ABUTH [7]: 90%
- herbicidal effect LOLRI [22]: 100%
- herbicidal effect MATIN [9]: 90%
- herbicidal effect STEME [10]: 100%
- herbicidal effect AMARE [12]: 100%
- herbicidal effect LOLRI [13]: 90%
- herbicidal effect LOLRI [25]: 90%
- herbicidal effect STEME [26]: 90%
- herbicidal effect AMARE [19]: 90%

Compound: Cc1nn(C)c(=O)c(Oc2cc(Cl)ccc2Br)c1O [Example I-091]
- herbicidal effect ABUTH [29]: 90%
- herbicidal effect LOLRI [2]: 100%
- herbicidal effect MATIN [3]: 100%
- herbicidal effect STEME [5]: 100%
- herbicidal effect AMARE [6]: 100%
- herbicidal effect LOLRI [22]: 90%
- herbicidal effect STEME [10]: 90%
- herbicidal effect LOLRI [13]: 100%
- herbicidal effect MATIN [14]: 90%
- herbicidal effect STEME [15]: 100%
- herbicidal effect AMARE [24]: 90%
- herbicidal effect STEME [26]: 90%
